These results are taken from ChEMBL document CHEMBL1201862, “PubChem BioAssay data set” (2004).

Structures are written as SMILES. Calls of active or inactive are those of the source. Some results are limits rather than exact numbers.

Assay [1] is described as follows: cAMP pathway inhibition in counterscreen cell line – TR-FRET cAMP detection, counter-screen for MC4R biased antagonist project, dose response (AID 602305).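 Note: U2OS cells stimulated with forskolin near its EC80 as the cAMP inducer; potency is for inhibition of forskolin-stimulated cAMP signaling.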 Format: functional, cell-based. For orientation: A counterscreen serves to expose hits that act by an unwanted route or on another target.
Another assay deals with Melanocortin receptor 4 (Homo sapiens, UniProt P32245). Nature of the assay: inhibitors of MC4R cAMP signaling – cell-based, TR-FRET, biased antagonists, dose response (AID 602298).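 Note: antagonist potency against agonist-stimulated cAMP production.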 Format: functional. In general terms: TR-FRET usually uses a lanthanide donor and a delayed reading to cut background.
The nature of another assay: cells. Format: functional, cell-based. The note with it: HEK-CNG.
A further assay deals with Tumor necrosis factor (Homo sapiens, UniProt P01375). Nature of the assay: analog potency on TNFa NF-kB signaling – cell-based, revised, SAR follow-up (AID 2337). The format is functional.
A further assay relates to INS1. Nature of the assay: INS-1E survival protection against cytokine death – cell-based, luminescence, retest, dose response (AID 449756).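 Note: cell death triggered by IL-1 beta plus TNF-alpha plus IFN-gamma mixture; protective hits raise ATP signal compared with cytokine alone wells.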 The format is functional. The note with it: Rattus norvegicus.
Assay [2] has as its system HEK293. Briefly: cells. The following applies: Homo sapiens.
The subject of another assay is Jurkat. Nature of the assay: blockers of NF-kB activation in T cells – Jurkat, luciferase reporter, luminescence, B- and T-cell, dose response (AID 489004).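 Note: NF-kB luciferase reporter Jurkat cells stimulated with PMA plus ionomycin.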 The format is functional, cell-based. The following applies: Homo sapiens. A general note: In a reporter assay the amount or activity of a reporter protein is the signal.
The next assay concerns the target T1, Galanin receptor type 3 (Homo sapiens, UniProt O60755).
T1 sequence (O60755 whole entry): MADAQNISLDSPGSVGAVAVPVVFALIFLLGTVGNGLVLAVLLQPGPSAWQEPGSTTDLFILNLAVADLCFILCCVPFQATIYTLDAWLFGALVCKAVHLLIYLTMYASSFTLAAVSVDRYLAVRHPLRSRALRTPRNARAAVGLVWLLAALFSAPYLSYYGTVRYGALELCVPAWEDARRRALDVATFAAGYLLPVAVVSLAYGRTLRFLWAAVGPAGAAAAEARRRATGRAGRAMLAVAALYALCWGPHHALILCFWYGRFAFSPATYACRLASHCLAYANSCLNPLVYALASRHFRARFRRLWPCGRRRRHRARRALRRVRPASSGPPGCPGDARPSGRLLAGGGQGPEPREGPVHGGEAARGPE
Nature of the assay: Fluorescence-based cell-based primary high throughput dose response assay to identify antagonists of the Galanin Receptor 3 (GalR3). Format: functional.

Assay [3] has as its target T2, Nucleotide-binding oligomerization domain-containing protein 1 (Homo sapiens, UniProt Q9Y239).
T2 sequence (Q9Y239 whole entry): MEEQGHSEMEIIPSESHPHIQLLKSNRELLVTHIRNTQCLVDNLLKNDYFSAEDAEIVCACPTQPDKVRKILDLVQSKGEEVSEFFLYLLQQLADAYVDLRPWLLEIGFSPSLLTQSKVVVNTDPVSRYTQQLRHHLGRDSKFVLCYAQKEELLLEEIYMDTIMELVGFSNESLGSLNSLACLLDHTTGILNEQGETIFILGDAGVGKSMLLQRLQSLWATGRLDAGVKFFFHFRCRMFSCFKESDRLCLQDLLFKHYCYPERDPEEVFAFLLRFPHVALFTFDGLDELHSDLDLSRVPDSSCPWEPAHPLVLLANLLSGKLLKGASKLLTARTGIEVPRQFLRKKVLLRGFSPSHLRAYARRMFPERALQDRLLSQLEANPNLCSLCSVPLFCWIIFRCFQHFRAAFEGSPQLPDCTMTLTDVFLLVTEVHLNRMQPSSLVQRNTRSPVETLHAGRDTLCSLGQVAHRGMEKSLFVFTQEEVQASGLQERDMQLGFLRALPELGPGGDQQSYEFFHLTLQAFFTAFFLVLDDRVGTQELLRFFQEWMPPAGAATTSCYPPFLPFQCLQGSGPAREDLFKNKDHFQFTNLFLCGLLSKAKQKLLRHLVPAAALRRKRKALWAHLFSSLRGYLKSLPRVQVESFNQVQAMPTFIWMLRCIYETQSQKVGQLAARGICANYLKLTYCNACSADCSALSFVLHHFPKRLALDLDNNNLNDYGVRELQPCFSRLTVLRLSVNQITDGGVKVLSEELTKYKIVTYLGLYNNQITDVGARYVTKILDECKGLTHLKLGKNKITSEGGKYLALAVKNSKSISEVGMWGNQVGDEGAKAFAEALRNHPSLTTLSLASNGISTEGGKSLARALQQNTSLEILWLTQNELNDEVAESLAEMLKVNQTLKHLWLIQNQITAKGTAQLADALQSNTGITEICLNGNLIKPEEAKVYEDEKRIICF
Nature of the assay: blockers of NOD1 pathway activity – revised, SAR follow-up (AID 2333). Format: functional.

Assay [4] in a line: HEK-293T viability loss, compound-treated – cell-based, uHTS hits, cytotoxicity control for B/T-cell NF-kB inhibitor project, dose response (AID 489019).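 Note: IC50 reflects cytotoxicity as loss of cell viability.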 Format: functional.
Assay [5] addresses DNA repair and recombination protein RAD54-like (Homo sapiens, UniProt Q92698). Briefly: RAD54 Holliday junction migration blockers – biochemical, fluorescence, cherry-picked samples, dose series, confirmation (AID 651657). The format is functional.
For another assay, the target named is Prothrombin (Bos taurus, UniProt P00735). Briefly: thrombin protease inhibitors – biochemical, fluorescence polarization, uHTS hits, dose response (AID 602369). Format: functional.
Assay [6] is described as follows: viability of uninfected HEp-2 cells – cell-based, HTS, cytotoxicity control for RSV inhibitor project, dose response (AID 2410). The format is functional. The following applies: human respiratory syncytial virus.
Assay [7] has as its target 26S proteasome non-ATPase regulatory subunit 14 (Homo sapiens, UniProt O00487). Nature of the assay: inhibition of proteasome subunit RPN11 – biochemical, fluorescence polarization, uHTS hits, confirmation (AID 602368). Format: functional.
Assay [8] deals with 72 kDa type IV collagenase (Homo sapiens, UniProt P08253). Nature of the assay: Dose Response validation of uHTS RPN11 inhibitor hits using a MMP-2 Fluorescence assay. Format: functional.
Assay [9] has as its system HEK293. Nature of the assay: HEK293T cell viability loss, resazurin readout – resazurin fluorescence, cytotoxicity control for NF-kB activator project, SAR follow-up (AID 493251). The format is functional, cell-based. The following applies: Homo sapiens.
The target of assay [10] is T3, Apoptotic protease-activating factor 1 (Homo sapiens, UniProt O14727).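 Note: caspase-3 cleavage of fluorogenic Rh110 DEVD substrate downstream of apoptosome activation.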
T3 sequence (O14727 whole entry): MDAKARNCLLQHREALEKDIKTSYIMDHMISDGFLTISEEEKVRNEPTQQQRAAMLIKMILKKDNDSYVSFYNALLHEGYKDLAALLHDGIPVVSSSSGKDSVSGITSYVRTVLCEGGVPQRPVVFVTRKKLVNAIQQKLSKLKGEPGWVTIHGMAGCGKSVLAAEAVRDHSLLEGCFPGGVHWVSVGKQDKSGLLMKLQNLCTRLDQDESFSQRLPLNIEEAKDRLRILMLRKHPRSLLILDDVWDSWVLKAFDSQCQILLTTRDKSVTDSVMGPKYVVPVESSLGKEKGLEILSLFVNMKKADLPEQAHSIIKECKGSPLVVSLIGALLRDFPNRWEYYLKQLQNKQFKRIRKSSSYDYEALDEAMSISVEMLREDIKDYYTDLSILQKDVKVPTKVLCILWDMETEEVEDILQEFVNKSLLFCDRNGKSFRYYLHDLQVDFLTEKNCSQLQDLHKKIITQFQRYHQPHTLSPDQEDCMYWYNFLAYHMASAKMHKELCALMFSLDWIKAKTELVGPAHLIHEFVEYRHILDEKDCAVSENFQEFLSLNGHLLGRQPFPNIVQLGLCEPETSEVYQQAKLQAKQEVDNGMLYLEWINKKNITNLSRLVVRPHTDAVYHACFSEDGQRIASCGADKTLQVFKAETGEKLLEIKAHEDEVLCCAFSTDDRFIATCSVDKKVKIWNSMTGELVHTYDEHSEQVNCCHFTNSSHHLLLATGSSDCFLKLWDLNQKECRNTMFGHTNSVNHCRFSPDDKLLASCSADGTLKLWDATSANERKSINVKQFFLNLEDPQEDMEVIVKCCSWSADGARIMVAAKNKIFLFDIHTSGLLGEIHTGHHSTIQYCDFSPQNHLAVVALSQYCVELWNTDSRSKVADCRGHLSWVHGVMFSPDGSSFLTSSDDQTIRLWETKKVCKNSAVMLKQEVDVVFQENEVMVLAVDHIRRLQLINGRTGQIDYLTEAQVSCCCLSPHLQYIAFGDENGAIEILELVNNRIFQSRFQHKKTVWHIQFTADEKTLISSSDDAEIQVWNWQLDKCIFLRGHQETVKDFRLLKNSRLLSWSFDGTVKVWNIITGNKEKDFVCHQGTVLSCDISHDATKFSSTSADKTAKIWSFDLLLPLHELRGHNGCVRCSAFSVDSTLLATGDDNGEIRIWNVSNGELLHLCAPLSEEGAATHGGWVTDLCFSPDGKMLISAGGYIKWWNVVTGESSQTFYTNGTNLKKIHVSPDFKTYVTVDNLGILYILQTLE
Briefly: SAR analysis of small molecule Activators of Apaf-1 in a Fluorescent assay. The note with it: read-out: EC50_Mean. The format is functional.

Assay [11] has as its target T4, SUMO-activating enzyme (Homo sapiens, UniProt Q9UBT2). Briefly: blockers of UBC9-mediated SUMO conjugation – biochemical, AlphaScreen, SUMOylation inhibitor project, confirmation (AID 2018). Format: functional.
For assay [12], the target named is DNA (cytosine-5)-methyltransferase 1 (Homo sapiens, UniProt P26358). Nature of the assay: inhibition of DNA methylation by DNMT1 – biochemical, fluorescent molecular beacon, confirmation (AID 602386). The format is functional.
Assay [13] deals with T5, Small ubiquitin-related modifier 1 (Homo sapiens, UniProt P63165). Briefly: SUMO1 protein-protein binding blockers, potency – biochemical, FRET, dose response (AID 624383). Format: functional. The note with it: read-out: IC50_Mean.
Assay [14] deals with T4, SUMO-activating enzyme. Nature of the assay: blockers of SAE1/SAE2–UBC9 SUMO transfer – biochemical, HTRF, uHTS, primary screen (AID 2006). Format: protein-complex assay.
Assay [15] addresses T5, Small ubiquitin-related modifier 1. Briefly: SUMO1 protein interaction blockers, potency – biochemical, fluorescence polarization, uHTS hits, dose response (AID 624382). Format: functional. The following applies: read-out: IC50_Mean.
The nature of assay [16]: NIH3T3 cell viability loss – ATP luminescence, mouse fibroblasts, counter-screen, dose response (AID 2010).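 Note: cells exposed to compound for about 90 hours before reading.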 The format is functional, cell-based.
Assay [17] is described as follows: Trypanosoma cruzi growth suppression in host cells – NIH3T3 host cells, beta-gal luminescence, confirmation (AID 2044).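 Note: intracellular parasites grown in NIH/3T3 mouse fibroblasts as host cells; luminescent beta-galactosidase reporter signal from transgenic T. cruzi replicating inside host cells; inhibitors lower the luminescence signal.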 The format is functional, cell-based.

Chain of Melanocortin receptor 4 (P32245 whole entry): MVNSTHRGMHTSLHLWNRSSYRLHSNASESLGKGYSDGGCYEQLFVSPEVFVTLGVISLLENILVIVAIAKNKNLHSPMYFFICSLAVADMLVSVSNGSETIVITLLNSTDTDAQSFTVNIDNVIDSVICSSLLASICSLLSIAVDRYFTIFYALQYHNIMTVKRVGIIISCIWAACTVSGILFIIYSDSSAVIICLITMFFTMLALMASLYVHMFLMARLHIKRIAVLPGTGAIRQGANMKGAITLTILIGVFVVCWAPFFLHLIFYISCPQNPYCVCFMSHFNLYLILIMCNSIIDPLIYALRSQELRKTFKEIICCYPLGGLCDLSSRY
Chain of 72 kDa type IV collagenase (P08253 whole entry): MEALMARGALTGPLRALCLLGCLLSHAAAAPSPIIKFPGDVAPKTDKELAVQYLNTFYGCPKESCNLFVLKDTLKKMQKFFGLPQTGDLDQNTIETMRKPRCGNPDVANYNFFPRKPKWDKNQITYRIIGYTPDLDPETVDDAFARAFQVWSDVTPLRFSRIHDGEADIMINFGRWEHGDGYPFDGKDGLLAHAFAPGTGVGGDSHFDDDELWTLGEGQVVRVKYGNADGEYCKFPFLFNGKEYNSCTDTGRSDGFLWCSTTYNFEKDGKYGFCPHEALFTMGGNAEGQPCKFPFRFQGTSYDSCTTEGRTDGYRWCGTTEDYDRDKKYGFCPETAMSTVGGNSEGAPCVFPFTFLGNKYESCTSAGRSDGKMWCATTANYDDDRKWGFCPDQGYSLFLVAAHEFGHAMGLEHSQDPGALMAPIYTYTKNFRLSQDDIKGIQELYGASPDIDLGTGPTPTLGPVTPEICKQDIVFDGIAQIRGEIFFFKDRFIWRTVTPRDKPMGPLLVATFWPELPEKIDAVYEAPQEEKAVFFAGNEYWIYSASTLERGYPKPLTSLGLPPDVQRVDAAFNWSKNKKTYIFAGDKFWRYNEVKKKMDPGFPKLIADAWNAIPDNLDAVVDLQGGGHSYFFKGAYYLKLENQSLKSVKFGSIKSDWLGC
T5 sequence (P63165 whole entry): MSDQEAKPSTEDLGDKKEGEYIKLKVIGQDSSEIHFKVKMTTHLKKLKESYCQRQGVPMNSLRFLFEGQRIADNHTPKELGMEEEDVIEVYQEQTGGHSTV
T4 sequence (Q9UBE0 whole entry): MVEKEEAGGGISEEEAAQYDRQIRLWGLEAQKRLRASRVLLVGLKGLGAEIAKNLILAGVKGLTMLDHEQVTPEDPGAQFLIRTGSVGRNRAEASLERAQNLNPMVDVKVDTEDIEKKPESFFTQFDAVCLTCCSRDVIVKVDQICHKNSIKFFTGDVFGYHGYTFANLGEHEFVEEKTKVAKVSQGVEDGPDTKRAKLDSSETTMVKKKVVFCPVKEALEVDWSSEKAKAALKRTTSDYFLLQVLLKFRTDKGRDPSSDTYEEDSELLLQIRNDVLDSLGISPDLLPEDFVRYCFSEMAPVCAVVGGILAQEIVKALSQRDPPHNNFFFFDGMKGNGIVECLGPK
T4 sequence (Q9UBT2 whole entry): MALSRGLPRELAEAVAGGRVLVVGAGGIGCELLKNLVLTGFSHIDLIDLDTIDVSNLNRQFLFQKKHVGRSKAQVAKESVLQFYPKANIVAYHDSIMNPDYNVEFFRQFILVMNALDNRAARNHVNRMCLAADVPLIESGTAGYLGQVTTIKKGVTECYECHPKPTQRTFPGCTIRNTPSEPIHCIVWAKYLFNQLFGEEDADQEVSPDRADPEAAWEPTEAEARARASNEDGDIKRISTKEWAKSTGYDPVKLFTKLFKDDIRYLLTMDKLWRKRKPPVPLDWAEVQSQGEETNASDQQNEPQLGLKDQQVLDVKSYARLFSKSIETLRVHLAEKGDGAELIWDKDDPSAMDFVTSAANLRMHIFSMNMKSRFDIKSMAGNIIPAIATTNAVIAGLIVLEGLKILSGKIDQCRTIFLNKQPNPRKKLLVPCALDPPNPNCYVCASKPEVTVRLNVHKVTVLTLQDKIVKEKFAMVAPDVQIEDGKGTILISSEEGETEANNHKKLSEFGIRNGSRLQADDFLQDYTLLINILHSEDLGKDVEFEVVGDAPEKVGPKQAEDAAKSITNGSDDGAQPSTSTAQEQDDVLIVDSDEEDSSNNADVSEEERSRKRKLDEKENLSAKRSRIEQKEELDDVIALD
Chain of 26S proteasome non-ATPase regulatory subunit 14 (O00487 whole entry): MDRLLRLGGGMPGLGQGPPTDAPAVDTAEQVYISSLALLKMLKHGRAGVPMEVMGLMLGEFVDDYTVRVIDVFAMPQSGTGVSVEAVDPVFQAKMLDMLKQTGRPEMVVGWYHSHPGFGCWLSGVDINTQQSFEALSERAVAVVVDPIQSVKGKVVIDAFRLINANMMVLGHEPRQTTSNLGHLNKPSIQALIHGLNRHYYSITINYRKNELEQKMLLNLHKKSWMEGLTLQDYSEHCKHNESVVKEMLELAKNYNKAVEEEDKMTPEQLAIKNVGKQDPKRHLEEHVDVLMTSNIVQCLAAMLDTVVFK
Chain of DNA (cytosine-5)-methyltransferase 1 (P26358 whole entry): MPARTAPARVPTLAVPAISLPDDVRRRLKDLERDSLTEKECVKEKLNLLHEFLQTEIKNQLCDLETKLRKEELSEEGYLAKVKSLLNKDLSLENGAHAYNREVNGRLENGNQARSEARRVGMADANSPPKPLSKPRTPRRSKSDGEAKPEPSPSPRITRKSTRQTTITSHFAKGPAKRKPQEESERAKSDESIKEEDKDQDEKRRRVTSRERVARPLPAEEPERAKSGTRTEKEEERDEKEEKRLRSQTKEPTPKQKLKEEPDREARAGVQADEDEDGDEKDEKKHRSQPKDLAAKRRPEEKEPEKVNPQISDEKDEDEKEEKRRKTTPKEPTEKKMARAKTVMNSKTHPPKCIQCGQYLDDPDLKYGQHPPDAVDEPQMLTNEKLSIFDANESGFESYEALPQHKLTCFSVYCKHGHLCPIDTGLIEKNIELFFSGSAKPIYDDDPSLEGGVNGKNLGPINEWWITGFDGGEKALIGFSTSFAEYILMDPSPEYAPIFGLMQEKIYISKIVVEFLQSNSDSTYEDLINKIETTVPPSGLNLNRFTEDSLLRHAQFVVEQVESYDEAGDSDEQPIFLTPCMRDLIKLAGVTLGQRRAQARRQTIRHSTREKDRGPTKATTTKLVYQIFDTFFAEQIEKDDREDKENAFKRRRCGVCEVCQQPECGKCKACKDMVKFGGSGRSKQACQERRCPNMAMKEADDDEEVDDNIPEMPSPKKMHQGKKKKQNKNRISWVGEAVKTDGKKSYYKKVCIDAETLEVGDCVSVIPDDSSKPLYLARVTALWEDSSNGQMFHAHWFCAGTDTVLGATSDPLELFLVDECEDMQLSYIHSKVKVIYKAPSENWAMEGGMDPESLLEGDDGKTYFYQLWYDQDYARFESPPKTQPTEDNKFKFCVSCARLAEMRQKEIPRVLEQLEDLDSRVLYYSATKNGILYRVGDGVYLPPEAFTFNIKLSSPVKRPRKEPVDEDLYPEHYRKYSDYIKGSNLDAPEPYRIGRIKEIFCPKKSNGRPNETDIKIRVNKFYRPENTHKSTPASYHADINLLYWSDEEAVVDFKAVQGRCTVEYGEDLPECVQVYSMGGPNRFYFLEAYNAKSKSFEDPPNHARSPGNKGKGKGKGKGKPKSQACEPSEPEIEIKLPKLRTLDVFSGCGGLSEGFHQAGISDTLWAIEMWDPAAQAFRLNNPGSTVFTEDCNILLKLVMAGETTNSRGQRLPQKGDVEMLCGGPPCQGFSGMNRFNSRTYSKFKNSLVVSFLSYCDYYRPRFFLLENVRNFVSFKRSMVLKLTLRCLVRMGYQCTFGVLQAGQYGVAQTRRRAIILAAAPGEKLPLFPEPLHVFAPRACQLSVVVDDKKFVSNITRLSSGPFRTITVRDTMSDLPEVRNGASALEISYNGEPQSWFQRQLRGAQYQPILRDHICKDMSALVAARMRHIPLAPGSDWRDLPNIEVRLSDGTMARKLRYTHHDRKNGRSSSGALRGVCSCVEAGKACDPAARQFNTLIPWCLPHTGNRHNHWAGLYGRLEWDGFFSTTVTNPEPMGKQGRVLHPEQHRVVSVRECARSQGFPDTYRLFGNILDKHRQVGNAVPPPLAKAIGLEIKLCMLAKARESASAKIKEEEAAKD
Chain of DNA repair and recombination protein RAD54-like (Q92698 whole entry): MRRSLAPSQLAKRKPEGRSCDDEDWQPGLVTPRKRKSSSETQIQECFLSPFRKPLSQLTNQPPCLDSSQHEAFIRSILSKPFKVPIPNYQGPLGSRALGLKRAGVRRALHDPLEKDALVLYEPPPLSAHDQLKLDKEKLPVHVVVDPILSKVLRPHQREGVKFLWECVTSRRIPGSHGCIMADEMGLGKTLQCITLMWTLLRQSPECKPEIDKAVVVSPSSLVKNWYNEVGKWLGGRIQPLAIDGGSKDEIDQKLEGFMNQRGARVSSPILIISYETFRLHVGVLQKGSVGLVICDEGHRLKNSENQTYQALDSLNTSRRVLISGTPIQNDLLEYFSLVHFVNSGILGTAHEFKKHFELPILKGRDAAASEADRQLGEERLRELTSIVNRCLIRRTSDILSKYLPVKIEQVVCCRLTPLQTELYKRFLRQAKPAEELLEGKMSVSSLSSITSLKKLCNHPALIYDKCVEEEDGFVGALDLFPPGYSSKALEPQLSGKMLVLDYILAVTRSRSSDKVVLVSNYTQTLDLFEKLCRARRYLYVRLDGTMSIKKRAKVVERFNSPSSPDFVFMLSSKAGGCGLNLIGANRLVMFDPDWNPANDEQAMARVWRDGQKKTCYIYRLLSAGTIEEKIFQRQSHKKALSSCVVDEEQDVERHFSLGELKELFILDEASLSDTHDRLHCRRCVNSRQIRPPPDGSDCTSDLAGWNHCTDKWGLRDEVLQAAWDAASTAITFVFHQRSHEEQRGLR
Chain of Tumor necrosis factor (P01375 whole entry): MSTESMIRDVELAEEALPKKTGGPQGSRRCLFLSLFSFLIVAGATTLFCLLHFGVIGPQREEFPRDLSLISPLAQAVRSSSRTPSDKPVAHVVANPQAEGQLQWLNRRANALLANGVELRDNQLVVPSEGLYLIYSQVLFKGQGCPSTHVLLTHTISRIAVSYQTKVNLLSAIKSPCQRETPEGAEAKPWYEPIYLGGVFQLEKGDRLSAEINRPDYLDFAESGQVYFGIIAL

Regarding `O=C(/C=C/c1cccs1)N1CCC2(CC1)Oc1ccc(Cl)cc1C(=O)C21CC(c2cccnc2)=NO1` (centres undefined), the IC50 (in assay [1]; on Melanocortin receptor 4) was > 64.6 µM (inactive) each time.
For the compound `CCOc1ccc(Nc2nc(Cl)nc(N3CCN(c4ccc(OC)cc4)CC3)n2)cc1`, the IC50 (in assay [1]; on Melanocortin receptor 4) was > 64.6 µM (inactive) each time.
Broadly, the AC50 is the concentration giving half of the maximal activity seen. Take `Cn1nccc1C(=O)NC1CCCc2c1cnn2-c1ccc(F)cc1F` (centres undefined): in “cells”, the EC50 is > 29.9 µM (inactive). For the same compound, the IC50 was 0.712 µM (active) on Tumor necrosis factor; > 20 µM (inactive) in the assay on HEK293 [2]; > 80 µM (inactive) in the assay with Jurkat; 0.24 µM (active) on Galanin receptor type 3; 0.677 µM (active) in assay [3]; > 80 µM (inactive) in assay [4]. In addition, in the assay with INS1, the AC50 is 1.44 µM (active).
With `Cc1ccc2nc3c(c(N)c2c1)CCN3c1ccccc1`, in assay [5], the AC50 is 42.5 µM (active).
One may read the CC50 as the concentration that lowers cell viability or growth by half. On to `CCc1ccc(/C=C2\SC(=S)N(CCC(=O)N3CCN(C)CC3)C2=O)cc1`, for which the IC50 at Prothrombin was 82.7 µM (active); in assay [7], 51.6 µM (active); in assay [8] it was > 100 µM (inactive). Also, the CC50 in assay [6] was 18.6 µM (active).
For the compound `CC(C)(C)c1ccc(-c2noc(CCC(=O)NC3CC3)n2)cc1`, the IC50 with HEK293 [9] is > 80 µM (inactive).
For the compound `O=C1CC2(CC(c3ccc(Cl)cc3)=NO2)C(=O)N1c1cccc(Cl)c1` (centres undefined), in assay [10], the EC50 is > 100 µM (inactive).
For the compound `C/C(=N\NC(=O)c1cc(O)cc(O)c1)c1ccc(NC(=O)Cc2ccccc2)cc1`, the IC50 at SUMO-activating enzyme [11] was 0.74 µM (active); in assay [12] it was 4.69 µM (active); in assay [13], 12 µM (active); on SUMO-activating enzyme [14], 9.77 µM (active); in [15], 50.1 µM (inactive).
As to `O=C(N/N=C\c1ccc(-c2ccc([N+](=O)[O-])cc2)o1)C1COc2ccccc2O1` (centres undefined), the IC50 was 36.4 µM (active) on Prothrombin, 28.2 µM (active) in [7] and > 100 µM (inactive) in assay [8]. The EC50 in [16] was > 60 µM (not active); in [17] it was 0.62 µM (active).
